# Data from US20250319015A1, “VACCINIUM MACROCARPON EXTRACT AND ANTI-AGEING COSMETIC EFFECTS THEREOF” (SOCIETE INDUSTRIELLE LIMOUSINE D'APPLICATION BIOLOGIQUE, priority 2021, published 2025).
# Marks after values point to notes of the source that are not given here.
# Columns and labels:
# [1] = test system: healthy Caucasian female volunteers; experiment: Structure of the dermal-epidermal junction by LC-OCT, Caucasian volunteers; type: in vivo, human; conditions: Retinol 0.075%
# Protocol: (§2) This study was carried out on 3 groups of 18 healthy female volunteers, aged 45 to 66 years and presenting with crow's feet wrinkles. Each of the volunteers applied two of the three study formulae to half the face twice-daily in a randomized manner for 42 days.
# Acquisitions carried out by LC-OCT after 21 and 42 days of treatment at the cheeks allowed evaluation of the structure of the dermal-epidermal junction
# [2] = test system: older human fibroblasts by successive replications; experiment: Gene expression by quantitative PCR on older human fibroblasts; type: cell-based; conditions: 1 μM Retinol
# Protocol: The procedure of the study is described below. The young and older human cells are seeded and incubated at 37° C. […] After several days, the cells are recovered and the total RNA extracted. The RNAs were reverse-transcribed and the complementary DNAs obtained were analyzed by the quantitative PCR technique. The mRNAs of internal reference controls were analyzed in parallel with the mRNAs of the markers involved in the barrier function of the epidermis, in the DEJ and in the dermal matrix. The incorporation of fluorescence is measured continuously using a thermal cycler. The RQ (relative quantification) analysis is performed using software.
# older human cells = experiment: Gene expression by quantitative PCR, structural elements of the DEJ, older cells; type: cell-based; conditions: 1 μM Retinol
# Protocol: This study was carried out on 34 genes involved in the various processes related to the establishment of: • the skin barrier function: proliferation, hydration, cohesion, differentiation, desquamation, innate immunity, anti-oxidant and inflammation system (cf. Table 9: Proliferation, Hydration, Cohesion, Differentiation, Anti-Radical and Inflammation). • the dermal-epidermal junction DEJ; • the dermal matrix; organization and degradation of the fibers, hydration and inflammation (cf. Table 9: Matrix Organization, Matrix Degradation, Hydration, Proteoglycan, Growth and Inflammation Factors). […] The procedure of the study is described below. The young and older human cells are seeded and incubated at 37° C. […] After several days, the cells are recovered and the total RNA extracted. The RNAs were reverse-transcribed and the complementary DNAs obtained were analyzed by the quantitative PCR technique. The mRNAs of internal reference controls were analyzed in parallel with the mRNAs of the markers involved in the barrier function of the epidermis, in the DEJ and in the dermal matrix. The incorporation of fluorescence is measured continuously using a thermal cycler. The RQ (relative quantification) analysis is performed using software.
# [3] = test system: healthy Caucasian female volunteers; experiment: Quality of the dermal fibers by LC-OCT, Caucasian volunteers; type: in vivo, human; conditions: Retinol 0.075%
# Protocol: as §2
# Acquisitions carried out by LC-OCT after 21 and 42 days of treatment at the cheeks allowed evaluation of the structure of the quality of the fibers.
# [4] = test system: older reconstructed epidermises; experiment: Thickness of reconstructed epidermises (hematoxylin eosin stain); type: cell-based, human; conditions: 10 μM Retinol
# Protocol: (§1) This study was carried out on normal and older reconstructed epidermises. The epidermal construction was evaluated using a Hematoxylin Eosin (HE) stain and the synthesis of the barrier function markers by immunohistofluorescence. The procedure of the study is described below. […] The epidermides are recovered, fixed, dehydrated, and enclosed in paraffin. Sections (4 μm) are then made using a microtome. The analysis of the thickness of the reconstructed epidermises is carried out by hematoxylin eosin (HE) stain. Viewing is performed using a microscope coupled to an image analysis system. The thickness of the epidermises obtained was measured on the histological sections produced.
# aquaporin 3 = experiment: Aquaporin 3 synthesis in reconstructed epidermises (immunohistofluorescence); type: cell-based, human; conditions: older reconstructed epidermises, 10 μM Retinol
# Protocol: as §1, with “The analysis of the thickness of the reconstructed epidermises is carried out by hematoxylin eosin (HE) stain.” left out, “produced. The rate of the various synthesized markers is proportional to the intensity of green fluorescence present on the reconstructed epidermises. A quantitative analysis of the images was carried out using an image analysis script. The results are expressed in arbitrary units (AU).” for “produced.”
# Ki-67 = Ki-67 synthesis in reconstructed epidermises (immunohistofluorescence); type: cell-based, human; conditions: older reconstructed epidermises, 10 μM Retinol
# Protocol: as §1, with “The analysis of the thickness of the reconstructed epidermises is carried out by hematoxylin eosin (HE) stain.” left out, “produced. The rate of the various synthesized markers is proportional to the intensity of green fluorescence present on the reconstructed epidermises. A quantitative analysis of the images was carried out using an image analysis script. The results are expressed in arbitrary units (AU).” for “produced.”
# [5] = test system: healthy Caucasian female volunteers; experiment: Transepidermal water losses (Tewameter), Caucasian volunteers; type: in vivo, human; conditions: Retinol 0.075%
# Protocol: Transepidermal water losses (TEWL) measurements at the cheeks were carried out using a Tewameter® before and after 21 and 42 days of twice-daily application.
# This study was carried out on 3 groups of 18 healthy, female volunteers, aged 45 to 66 years and presenting with crow's feet wrinkles. Each of the volunteers applied two of the three formulae to half the face twice-daily in a randomized manner for 42 days.
# hyaluronic acid = experiment: Hyaluronic acid synthesis by ELISA on older human fibroblasts; type: cell-based; conditions: Older fibroblasts; 1 μM Retinol; 48 hours
# Protocol: The older human fibroblasts are seeded and incubated at 37° C. in an atmosphere containing 5% CO2.
# The cells are then incubated at 37° C. in an atmosphere containing 5% CO2 for 48 hours.
smiles,measurement,setting,value
"CC1=C(/C=C/C(C)=C/C=C/C(C)=C/CO)C(C)(C)CCC1 [Retinol, retinol]","Sinuosity of the DEJ, change compared to placebo",[1]; D 21,+2%
same,"Sinuosity of the DEJ, change compared to placebo","[1]; D 21, listed as retinol",+2%
same,"Sinuosity of the DEJ, change compared to placebo",[1]; D 42,+3%
same,"Sinuosity of the DEJ, change compared to placebo","[1]; D 42, listed as retinol",+3%
same,ACAN: Efficacy of retinol/older control (%),[2],−74%
same,AQP3: Efficacy of retinol/older control (%),[2],+30%
same,BGN: Efficacy of retinol/older control (%),[2],+24%
same,COL1A1: Efficacy of retinol/older control (%),[2],+25%
same,COL3A1: Efficacy of retinol/older control (%),[2],+67%
same,CXCL8: Efficacy of retinol/older control (%),[2],+282%
same,DCN: Efficacy of retinol/older control (%),[2],+7%
same,ELN: Efficacy of retinol/older control (%),[2],+5%
same,FBN1: Efficacy of retinol/older control (%),[2],−1%
same,HSPG2: Efficacy of retinol/older control (%),[2],+3%
same,IL1: Efficacy of retinol/older control (%),[2],+151%
same,LUM: Efficacy of retinol/older control (%),[2],−3%
same,MMP1: Efficacy of retinol/older control (%),[2],−24%
same,POSTN: Efficacy of retinol/older control (%),[2],+24%
same,TGFβ1: Efficacy of retinol/older control (%),[2],+8%
same,VEGFA: Efficacy of retinol/older control (%),[2],+2%
same,ACAN expression (qPCR),[2]; young cells control=100,10
same,AQP3 expression (qPCR),[2]; young cells control=100,73
same,BGN expression (qPCR),[2]; young cells control=100,78
same,COL1A1 expression (qPCR),[2]; young cells control=100,79
same,COL3A1 expression (qPCR),[2]; young cells control=100,72
same,CXCL8 expression (qPCR),[2]; young cells control=100,803
same,DCN expression (qPCR),[2]; young cells control=100,89
same,ELN expression (qPCR),[2]; young cells control=100,63
same,FBN1 expression (qPCR),[2]; young cells control=100,90
same,HSPG2 expression (qPCR),[2]; young cells control=100,90
same,IL1 expression (qPCR),[2]; young cells control=100,567
same,LUM expression (qPCR),[2]; young cells control=100,87
same,MMP1 expression (qPCR),[2]; young cells control=100,164
same,POSTN expression (qPCR),[2]; young cells control=100,56
same,TGFβ1 expression (qPCR),[2]; young cells control=100,103
same,VEGFA expression (qPCR),[2]; young cells control=100,93
same,COL4A1: Efficacy of retinol/older control (%),older human cells,−5%
same,COL7A1: Efficacy of retinol/older control (%),older human cells,−21%
same,COL17A1: Efficacy of retinol/older control (%),older human cells,−16%
same,LAMA3: Efficacy of retinol/older control (%),older human cells,−9%
same,COL4A1 expression (qPCR),older human cells; young cells control=100,38
same,COL7A1 expression (qPCR),older human cells; young cells control=100,68
same,COL17A1 expression (qPCR),older human cells; young cells control=100,81
same,LAMA3 expression (qPCR),older human cells; young cells control=100,94
same,"Fiber Quality, change compared to placebo",[3]; D 21,+3%
same,"Fiber Quality, change compared to placebo","[3]; D 21, listed as retinol",+3%
same,"Fiber Quality, change compared to placebo",[3]; D 42,+12%
same,Ability to restore the thickness of the epidermis (%),[4],+94%
same,Measurement of the thickness of the epidermis (μm),[4]; 48 hours,59 μm
same,Ability to restore aquaporin 3 synthesis (%),aquaporin 3,+100%
same,Aquaporin 3 synthesis (×10^4 AU),aquaporin 3; 48 hours,355** ×10^4 AU
same,Ability to restore Ki-67 synthesis (%),Ki-67,+71%
same,Ki-67-positive cells (%),Ki-67; 48 hours,23%
same,"Water loss, change compared to placebo",[5]; D 21,+24%
same,"Water loss, change compared to placebo","[5]; D 21, listed as retinol",+24%
same,"Water loss, change compared to placebo",[5]; D 42,+15%
same,"Water loss, change compared to placebo","[5]; D 42, listed as retinol",+15%
same,Synthesis of hyaluronic acid (ng/mg proteins),hyaluronic acid,4112 ng/mg proteins
